According to US11932645B2, “Substituted pyrazolo[1,5-a]pyrimidines and their use in the treatment of medical disorders” (Bial—R&D Investments, S.A., priority 2014, dated 2024):

molecular target: T1, glucocerebrosidase (Gcase) (Homo sapiens, UniProt P04062); test: Glucocerebrosidase (Gcase) activation assay, 4-methylumbelliferyl-beta-D-glucopyranoside substrate, with saposin C; assay type: biochemical; settings: 0.1 μM test compound; 10 nM GCase, 100 nM saposin C, pH 4.7
T1 sequence (P04062 40-536): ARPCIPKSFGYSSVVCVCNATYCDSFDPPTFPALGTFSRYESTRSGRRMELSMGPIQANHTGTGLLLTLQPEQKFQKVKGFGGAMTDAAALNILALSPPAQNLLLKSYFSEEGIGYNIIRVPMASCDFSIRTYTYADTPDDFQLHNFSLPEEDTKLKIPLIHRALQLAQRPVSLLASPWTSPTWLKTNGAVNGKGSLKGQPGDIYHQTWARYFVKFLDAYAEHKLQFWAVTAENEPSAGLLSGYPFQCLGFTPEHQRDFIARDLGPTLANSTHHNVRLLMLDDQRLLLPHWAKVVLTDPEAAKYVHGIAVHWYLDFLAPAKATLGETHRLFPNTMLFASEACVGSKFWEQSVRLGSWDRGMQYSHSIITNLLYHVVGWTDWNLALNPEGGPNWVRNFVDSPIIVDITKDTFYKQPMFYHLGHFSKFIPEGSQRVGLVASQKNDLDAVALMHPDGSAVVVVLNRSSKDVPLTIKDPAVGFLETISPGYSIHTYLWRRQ
Procedure: The ability of exemplary compounds to activate glucocerebrosidase (Gcase) was measured.
A 484 μL aliquot of a 1.0 mg/mL solution of phosphatidylserine (PS) (Sigma P7769) in chloroform was evaporated under a stream of nitrogen for 1 hour. The lipid film was dissolved over 4 minutes of vigorous vortexing in 40 mL of 176 mM K2HPO4/50 mM citric acid (pH 4.7) containing 7.5 μL of triton X-100, resulting in a mixed micellar preparation with a composition of 0.32 mM triton and 0.37 mol % PS. 4-Methylumbelliferyl-beta-D-glucopyranoside (ACROS-337025000) was dissolved in the micellar solution to a final concentration of 2 mM for use as the reaction substrate.
Test compounds were diluted to the desired concentrations with dimethylsulfoxide (DMSO) from 10 mM stocks, and 0.41 μL of the DMSO compound mixture was added to 100 μL of micellar solution containing 10 nM GCase and 100 nM saposin C (Enzo ALX-201-262-C050). Pre-incubation was allowed to occur for 30 minutes at room temperature, after which the reaction was initiated by combining 25 μL of substrate solution with 25 μL of compound/GCase/saposin mixture. The reaction proceeded for 15 minutes at room temperature and was stopped by adding 150 μL of 1M glycine, pH 12.5. The endpoint of the reaction was monitored by measuring fluorescence intensity (excitation: 365 nm; emission: 440 nm) on a SpectraMax i3 instrument (Molecular Devices). Test compounds were screened at 1.0 and 0.1 μM final concentration, and subsequent 8-point dose response curves were obtained using 3-fold dilutions from a maximum final concentration of 5 μM.
For experiments in which the test compound was used at a concentration of 1.0 μM, the symbol “+” indicates less than 30% Gcase activation; the symbol “++” indicates Gcase activation in the range of 30% up to 60%; and the symbol “+++” indicates Gcase activation greater than 60%. For experiments in which the test compound was used at a concentration of 0.1 μM, the symbol “*” indicates less than 10% Gcase activation; the symbol “**” indicates Gcase activation in the range of 10% up to 20%; and the symbol “***” indicates greater than 20% Gcase activation.

Percent Gcase Activation 0.1 μM Test Compound	Structure (SMILES)
* (less than 10% Gcase activation)	C#Cc1ccc(NC(=O)c2cnn3c(C)cc(C)nc23)nc1 [III-1]
* (less than 10% Gcase activation)	Cc1ccn2ncc(CNc3ccc(-c4ncco4)cc3)c2n1 [III-26]
* (less than 10% Gcase activation)	C#Cc1ccc(NCc2cnn3c(C)cc(C)cc23)cc1 [III-74]
* (less than 10% Gcase activation)	Cc1cc(C)n2ncc(C(=O)Nc3ccc(Cl)c(C(C)Oc4cccnc4)c3)c2n1 (centres unmarked) [III-75]
* (less than 10% Gcase activation)	Cc1cc(C)n2ncc(CNc3ccc(-c4cocn4)nc3)c2n1 [III-24]
* (less than 10% Gcase activation)	Cc1cc(C)n2ncc(C(=O)Nc3ccc4c(c3)OCO4)c2n1 [IV-4]
* (less than 10% Gcase activation)	Cc1cc(C)n2ncc(C(=O)Nc3ccc(-c4ccco4)nc3)c2n1 [III-22]
*** (greater than 20% Gcase activation)	Cc1cc(C)n2ncc(C(=O)NC3CCCc4ccccc43)c2n1 (centres unmarked) [III-58]

The remaining lines, values behind:

Structure (SMILES)	Percent Gcase Activation 0.1 μM Test Compound
Cc1cc(C)n2ncc(C(=O)Nc3ccc(-c4ccc[nH]4)cc3)c2n1 [III-57]	** (Gcase activation in the range of 10% up to 20%)
Cc1cc(C)n2ncc(C(=O)Nc3ccc(-c4ccc[nH]4)cc3)c2n1 [III-76]	** (Gcase activation in the range of 10% up to 20%)
Cc1cc(Cl)nc2c(C(=O)NC(C)(C)c3ccc(Cl)cc3)cnn12 [III-69]	*** (greater than 20% Gcase activation)
Cc1cc(C)n2ncc(C(=O)Nc3ccc(-c4ccccc4)cc3)c2n1 [III-3]	*** (greater than 20% Gcase activation)
Cc1cc(C)n2ncc(C(=O)Nc3ccc(-c4cccs4)nc3)c2n1 [III-20]	*** (greater than 20% Gcase activation)
Cc1cc(C)n2ncc(C(=O)Nc3nc4ccccc4[nH]3)c2n1 [III-28]	* (less than 10% Gcase activation)
C#CCOc1ccc(NC(=O)c2cnn3c(C)cc(C)nc23)cc1 [III-33]	* (less than 10% Gcase activation)
Cc1cc(C)n2ncc(C(=O)NC(C)(C)c3ccc(Cl)cc3)c2n1 [III-67]	** (Gcase activation in the range of 10% up to 20%)
Cc1cc(C)n2ncc(C(=O)NC3CCc4ccccc43)c2n1 (centres unmarked) [III-79]	** (Gcase activation in the range of 10% up to 20%)
Cc1cc(C)n2ncc(C(=O)N[C@@H](C)c3cccc(Cl)c3)c2n1 [III-63]	** (Gcase activation in the range of 10% up to 20%)
Cc1cc(C)n2ncc(C(=O)Nc3ccc(-c4cc[nH]n4)cc3)c2n1 [III-31]	* (less than 10% Gcase activation)
Cc1cc(C)n2ncc(C(=O)Nc3ccc(-c4cnoc4)cc3)c2n1 [III-17]	* (less than 10% Gcase activation)
Cc1cc(C)n2ncc(C(=O)Nc3ccc(C)c(-c4ncco4)c3)c2n1 [III-52]	** (Gcase activation in the range of 10% up to 20%)
Cc1cc(C)n2ncc(C(=O)Nc3ccc(-c4ccco4)cc3)c2n1 [III-55]	*** (greater than 20% Gcase activation)
C#C[C@H]1CC[C@H](NC(=O)c2cnn3c(C)cc(C)nc23)CC1 [III-14]	* (less than 10% Gcase activation)
Cc1cc(C)n2ncc(C(=O)N[C@@H](C)c3ccccc3F)c2n1 [III-60]	* (less than 10% Gcase activation)
Cc1cc(C)n2ncc(C(=O)Nc3ccc4nc(C)sc4c3)c2n1 [III-50]	* (less than 10% Gcase activation)
Cc1cc(C)n2ncc(C(=O)Nc3ccc(-c4ccncc4)nc3)c2n1 [III-21]	* (less than 10% Gcase activation)
CCCCCO[C@H]1CC[C@H](NC(=O)c2cnn3c(C)cc(C)nc23)CC1 [III-59]	** (Gcase activation in the range of 10% up to 20%)
Cc1cc(C)n2ncc(C(=O)Nc3ccc(-c4ccncc4)cc3)c2n1 [III-56]	* (less than 10% Gcase activation)
Cc1cc(C)n2ncc(C(=O)Nc3ccc(-c4cccs4)cc3)c2n1 [III-39]	*** (greater than 20% Gcase activation)

same assay, conditions: 1.0 μM test compound; 10 nM GCase, 100 nM saposin C, pH 4.7

Percent Gcase Activation 1 μM Test Compound	Structure (SMILES)
+ (less than 30% Gcase activation)	Cc1ccn2ncc(CNc3ccc(-c4ncco4)cc3)c2n1 [III-26]
+++ (Gcase activation greater than 60%)	Cc1cc(C)n2ncc(C(=O)NC(C)(C)c3ccc(Cl)cc3)c2n1 [III-67]
+ (less than 30% Gcase activation)	C#Cc1ccc(NCc2cnn3c(C)cc(C)cc23)cc1 [III-74]
+++ (Gcase activation greater than 60%)	Cc1cc(C)n2ncc(C(=O)Nc3ccc(Cl)c(C(C)Oc4cccnc4)c3)c2n1 (centres unmarked) [III-75]
+ (less than 30% Gcase activation)	Cc1cc(C)n2ncc(CNc3ccc(-c4cocn4)nc3)c2n1 [III-24]
+++ (Gcase activation greater than 60%)	CCCCCO[C@H]1CC[C@H](NC(=O)c2cnn3c(C)cc(C)nc23)CC1 [III-59]
+++ (Gcase activation greater than 60%)	Cc1cc(C)n2ncc(C(=O)NC3CCCc4ccccc43)c2n1 (centres unmarked) [III-58]

The remaining lines, values behind:

Structure (SMILES)	Percent Gcase Activation 1 μM Test Compound
Cc1cc(C)n2ncc(C(=O)Nc3ccc(-c4ccc[nH]4)cc3)c2n1 [III-57]	+ (less than 30% Gcase activation)
Cc1cc(C)n2ncc(C(=O)Nc3ccc(-c4ccc[nH]4)cc3)c2n1 [III-76]	++ (Gcase activation in the range of 30% up to 60%)
Cc1cc(Cl)nc2c(C(=O)NC(C)(C)c3ccc(Cl)cc3)cnn12 [III-69]	+++ (Gcase activation greater than 60%)
C#Cc1ccc(NC(=O)c2cnn3c(C)cc(C)nc23)nc1 [III-1]	++ (Gcase activation in the range of 30% up to 60%)
Cc1cc(C)n2ncc(C(=O)Nc3ccc(-c4ccccc4)cc3)c2n1 [III-3]	++ (Gcase activation in the range of 30% up to 60%)
Cc1cc(C)n2ncc(C(=O)Nc3ccc(-c4cccs4)nc3)c2n1 [III-20]	+++ (Gcase activation greater than 60%)
Cc1cc(C)n2ncc(C(=O)Nc3nc4ccccc4[nH]3)c2n1 [III-28]	+ (less than 30% Gcase activation)
C#CCOc1ccc(NC(=O)c2cnn3c(C)cc(C)nc23)cc1 [III-33]	+ (less than 30% Gcase activation)
Cc1cc(C)n2ncc(C(=O)N[C@@H](C)c3cccc(Cl)c3)c2n1 [III-63]	+++ (Gcase activation greater than 60%)
Cc1cc(C)n2ncc(C(=O)Nc3ccc(-c4cc[nH]n4)cc3)c2n1 [III-31]	+ (less than 30% Gcase activation)
Cc1cc(C)n2ncc(C(=O)Nc3ccc(-c4cnoc4)cc3)c2n1 [III-17]	+ (less than 30% Gcase activation)
Cc1cc(C)n2ncc(C(=O)Nc3ccc(C)c(-c4ncco4)c3)c2n1 [III-52]	+++ (Gcase activation greater than 60%)
Cc1cc(C)n2ncc(C(=O)Nc3ccc(-c4ccco4)cc3)c2n1 [III-55]	+++ (Gcase activation greater than 60%)
C#C[C@H]1CC[C@H](NC(=O)c2cnn3c(C)cc(C)nc23)CC1 [III-14]	+ (less than 30% Gcase activation)
Cc1cc(C)n2ncc(C(=O)N[C@@H](C)c3ccccc3F)c2n1 [III-60]	+++ (Gcase activation greater than 60%)
Cc1cc(C)n2ncc(C(=O)Nc3ccc4c(c3)OCO4)c2n1 [IV-4]	++ (Gcase activation in the range of 30% up to 60%)
Cc1cc(C)n2ncc(C(=O)Nc3ccc(-c4ccco4)nc3)c2n1 [III-22]	++ (Gcase activation in the range of 30% up to 60%)
Cc1cc(C)n2ncc(C(=O)Nc3ccc4nc(C)sc4c3)c2n1 [III-50]	++ (Gcase activation in the range of 30% up to 60%)
Cc1cc(C)n2ncc(C(=O)Nc3ccc(-c4ccncc4)nc3)c2n1 [III-21]	+ (less than 30% Gcase activation)
Cc1cc(C)n2ncc(C(=O)Nc3ccc(-c4ccncc4)cc3)c2n1 [III-56]	+ (less than 30% Gcase activation)
Cc1cc(C)n2ncc(C(=O)Nc3ccc(-c4cccs4)cc3)c2n1 [III-39]	+++ (Gcase activation greater than 60%)

system: not listed separately; test: Compound solubility in water; assay type: physicochemical; settings: not given

Compound Solubility in Water	Structure (SMILES)
<1.5 µg/mL	Cc1cc(C)n2ncc(C(=O)Nc3ccc(-c4ccc[nH]4)cc3)c2n1 [III-57]
0.01 µg/mL	Cc1cc(C)n2ncc(C(=O)Nc3ccc(-c4ccc[nH]4)cc3)c2n1 [III-76]
